The values that follow are results of earlier work, collected in patent US7220859B2, “Bicyclic heterocycles as cannabinoid receptor modulators” (Bristol-Myers Squibb Company, priority 2005, dated 2007).

The conditions of this data set: 16 week trial period.

For `Cc1c(C(=O)NN2CCCCC2)nn(-c2ccc(Cl)cc2Cl)c1-c1ccc(Cl)cc1` [SR-141716], the “body weight in human subjects” value is “dose-dependently reduced body weight”.
